Test [1] deals with streptavidin, bifunctional compound and sortilin-6his (UniProt P22629+Q99523, V650M). The test is described as follows: TR-FRET ternary complex formation streptavidin / bifunctional peptide / sortilin-6his. The settings on record: Table 2; […] incubation, HTRF ratio 665/620 nm. On the technique in general: TR-FRET usually uses a lanthanide donor and a delayed reading to cut background.
Protocol: In these experiments, the compounds of interest were titrated over 24-point in a 384-well TTP LVDS plate (SPT Labtech) to a final buffer composition of 50 mM Bis-Tris Propane pH 8, 50 mM NaCl, 0.05% Tween20, with or without 10% DMSO using a Mosquito LV pipetting robot (SPT Labtech).
The reaction was allowed to incubate for 2.5 hours at room temperature, at which point the HTRF signal ratio at 665/620 nm was determined using a plate reader (ClarioStar, BMG Labtech). All reactions were run in triplicates and data was represented as HTRF ratio as a function of bifunctional compound concentration.

Test [2] addresses T1, soluble ectodomain of sortilin-6his (Homo sapiens, UniProt Q99523, V650M).
T1 construct: the soluble ectodomain of sortilin-6his is measured by microscale thermophoresis (MST)
The test can be described thus: MST binding to soluble ectodomain of sortilin-6his. The settings on record: Table 1; biotin-linker-peptide bifunctional compounds; MST; read-out: KD score, binding to sortilin (Kd).

Test [3] addresses T2, Sortilin-6His (Homo sapiens (Human), UniProt Q99523 78-755).
T2 construct: In MST it was labelled non-covalently with RED-tris-NTA; also called soluble ectodomain of sortilin-6his; fluorescent sortilin-6his
The test can be described thus: MST on labelled sortilin-6his ectodomain; KD score: ++ <100 nM, + 100-2000 nM.

For test [4], the target named is T2, Sortilin-6His. The test is described as follows: TR-FRET (HTRF) ternary complex streptavidin-d2 / biotin-peptide / sortilin-6His; AUC score: + <5000, ++ >5000.

Residues, ends and D or L forms follow the SMILES beside them. *: point of attachment. Biotin = O=C1N[C@H]2[C@H](CS[C@H]2CCCCC(=O)*)N1

T2 sequence (Q99523 78-755 V650M limits assumed): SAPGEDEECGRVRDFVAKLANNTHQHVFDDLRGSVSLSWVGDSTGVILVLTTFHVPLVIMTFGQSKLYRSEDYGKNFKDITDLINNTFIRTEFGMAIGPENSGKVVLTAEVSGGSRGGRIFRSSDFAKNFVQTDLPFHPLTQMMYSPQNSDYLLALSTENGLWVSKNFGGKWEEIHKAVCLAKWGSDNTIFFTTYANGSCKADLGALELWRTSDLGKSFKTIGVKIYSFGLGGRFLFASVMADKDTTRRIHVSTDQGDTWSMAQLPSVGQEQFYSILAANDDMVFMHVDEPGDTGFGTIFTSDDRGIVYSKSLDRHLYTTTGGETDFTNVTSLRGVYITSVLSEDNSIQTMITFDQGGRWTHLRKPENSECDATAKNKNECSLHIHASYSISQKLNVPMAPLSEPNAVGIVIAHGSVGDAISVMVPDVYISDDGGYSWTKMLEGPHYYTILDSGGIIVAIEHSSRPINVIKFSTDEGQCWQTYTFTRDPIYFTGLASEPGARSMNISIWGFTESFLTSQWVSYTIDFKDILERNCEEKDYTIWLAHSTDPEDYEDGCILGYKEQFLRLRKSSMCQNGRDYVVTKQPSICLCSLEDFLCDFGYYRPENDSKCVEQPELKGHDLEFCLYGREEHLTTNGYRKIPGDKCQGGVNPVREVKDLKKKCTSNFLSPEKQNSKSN
T1 sequence (Q99523 with tags, fused parts or gaps V650M): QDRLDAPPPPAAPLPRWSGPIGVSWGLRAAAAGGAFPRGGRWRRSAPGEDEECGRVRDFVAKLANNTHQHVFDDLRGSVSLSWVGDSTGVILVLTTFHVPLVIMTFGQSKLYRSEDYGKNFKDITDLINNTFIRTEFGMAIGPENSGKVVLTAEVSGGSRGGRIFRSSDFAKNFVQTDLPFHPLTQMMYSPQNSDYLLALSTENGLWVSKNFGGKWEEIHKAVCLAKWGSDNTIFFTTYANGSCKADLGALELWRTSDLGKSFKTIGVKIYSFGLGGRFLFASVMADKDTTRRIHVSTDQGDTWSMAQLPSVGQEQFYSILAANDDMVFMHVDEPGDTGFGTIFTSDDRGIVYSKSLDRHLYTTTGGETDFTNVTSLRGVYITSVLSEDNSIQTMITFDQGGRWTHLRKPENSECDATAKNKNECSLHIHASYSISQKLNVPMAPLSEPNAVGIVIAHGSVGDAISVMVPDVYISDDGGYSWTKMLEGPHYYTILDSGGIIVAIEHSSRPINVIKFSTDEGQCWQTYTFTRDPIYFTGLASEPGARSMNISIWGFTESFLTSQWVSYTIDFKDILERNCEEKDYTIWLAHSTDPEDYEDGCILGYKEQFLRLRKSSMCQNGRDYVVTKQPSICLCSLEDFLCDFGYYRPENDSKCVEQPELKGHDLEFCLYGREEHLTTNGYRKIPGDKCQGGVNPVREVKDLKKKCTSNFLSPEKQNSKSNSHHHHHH

The term Kd denotes a measure of binding affinity in units of concentration. In the case of `CC(C)C[C@H](NC(=O)[C@H](CC(C)C)NC(=O)[C@H](CCC(N)=O)NC(=O)[C@H](CCCNC(=N)N)NC(=O)[C@H](CO)NC(=O)CNC(=O)CNC(=O)CNC(=O)CNC(=O)[C@H](CO)NC(=O)CNC(=O)CNC(=O)CNC(=O)CNC(=O)[C@H](CO)NC(=O)CNC(=O)CNC(=O)CCCC[C@@H]1SC[C@@H]2NC(=O)N[C@@H]21)C(=O)O` [compound 142] (Biotin-GGSGGGGSGGGGSRQLL-OH), the “AUC score, TR-FRET measurements of ternary complex formation” value (from here on “AUC score, TR-FRET measurements”) in test [1] is listed as “+ (AUC < 5000)”. The Kd in test [2] was less than 100 nM.

Turning to `CC(C)C[C@H](NC(=O)[C@H](CC(C)C)NC(=O)[C@H](CCC(N)=O)NC(=O)[C@H](CCCNC(=N)N)NC(=O)CNC(=O)CNC(=O)CNC(=O)[C@H](CO)NC(=O)CNC(=O)CNC(=O)CNC(=O)CNC(=O)[C@H](CO)NC(=O)CNC(=O)CNC(=O)CCCC[C@@H]1SC[C@@H]2NC(=O)N[C@@H]21)C(=O)O` [compound 149] (Biotin-GGSGGGGSGGGRQLL-OH), the “AUC score, TR-FRET measurements” value in test [1] is on record as “+ (AUC < 5000)”. Further, in test [2], the Kd was in the range of 100 to 2000 nM.

With `CC(C)C[C@H](NC(=O)[C@H](CC(C)C)NC(=O)[C@H](CCC(N)=O)NC(=O)[C@H](Cc1ccccc1)NC(=O)[C@H](CO)NC(=O)CNC(=O)CNC(=O)CNC(=O)CNC(=O)[C@H](CO)NC(=O)CNC(=O)CNC(=O)CNC(=O)CNC(=O)[C@H](CO)NC(=O)CNC(=O)CNC(=O)CCCC[C@@H]1SC[C@@H]2NC(=O)N[C@@H]21)C(=O)O` [compound 146] (Biotin-GGSGGGGSGGGGSFQLL-OH), the “AUC score, TR-FRET measurements” value in test [1] is “++ (AUC > 5000)”. In addition, the Kd in test [2] was in the range of 100 to 2000 nM.

Regarding `CC(C)C[C@H](NC(=O)[C@H](CC(C)C)NC(=O)[C@H](CCC(N)=O)NC(=O)[C@H](CCCNC(=N)N)NC(=O)CNC(=O)[C@H](CO)NC(=O)CNC(=O)CNC(=O)CNC(=O)CNC(=O)[C@H](CO)NC(=O)CNC(=O)CNC(=O)CCCC[C@@H]1SC[C@@H]2NC(=O)N[C@@H]21)C(=O)O` [compound 141] (Biotin-GGSGGGGSGRQLL-OH), the “AUC score, TR-FRET measurements” value in test [1] was “+ (AUC < 5000)”. Moreover, the Kd in test [2] is less than 100 nM.

For the molecule `CC(C)C[C@H](NC(=O)[C@H](CC(C)C)NC(=O)[C@H](CCC(N)=O)NC(=O)[C@H](Cc1ccccc1)NC(=O)CNC(=O)CNC(=O)CNC(=O)[C@H](CO)NC(=O)CNC(=O)CNC(=O)CNC(=O)CNC(=O)[C@H](CO)NC(=O)CNC(=O)CNC(=O)CCCC[C@@H]1SC[C@@H]2NC(=O)N[C@@H]21)C(=O)O` [compound 148] (Biotin-GGSGGGGSGGGFQLL-OH), the “AUC score, TR-FRET measurements” value in test [1] is “++ (AUC > 5000)”. The dissociation constant (Kd) in test [2] lay in the range of 100 to 2000 nM.

As to `CC(C)C[C@H](NC(=O)[C@H](CC(C)C)NC(=O)[C@H](CCC(N)=O)NC(=O)[C@H](Cc1ccccc1)NC(=O)CNC(=O)[C@H](CO)NC(=O)CNC(=O)CNC(=O)CNC(=O)CNC(=O)[C@H](CO)NC(=O)CNC(=O)CNC(=O)CCCC[C@@H]1SC[C@@H]2NC(=O)N[C@@H]21)C(=O)O` [compound 145] (Biotin-GGSGGGGSGFQLL-OH), in test [1], the “AUC score, TR-FRET measurements” value is “+ (AUC < 5000)”. In addition, the Kd in test [2] was less than 100 nM.

B1: Biotin-GGSGGGGSGGGGSRQLL-OH (peptide)
peptide: Biotin-GGSGGGGSGGGGSRQLL-OH
SMILES: CC(C)C[C@H](NC(=O)[C@H](CC(C)C)NC(=O)[C@H](CCC(N)=O)NC(=O)[C@H](CCCNC(=N)N)NC(=O)[C@H](CO)NC(=O)CNC(=O)CNC(=O)CNC(=O)CNC(=O)[C@H](CO)NC(=O)CNC(=O)CNC(=O)CNC(=O)CNC(=O)[C@H](CO)NC(=O)CNC(=O)CNC(=O)CCCC[C@@H]1SC[C@@H]2NC(=O)N[C@@H]21)C(=O)O
As usually defined, the KD is the constant that tells how readily two partners part at equilibrium. In the case of B1, in the test with Sortilin-6His [3], the KD was less than 100 nM. For the same molecule, the “AUC of TR-FRET (HTRF ratio vs compound concentration) for ternary complex formation” value with Sortilin-6His [4] was less than 5000 auc.

B2: Biotin-GGSGGGGSGGGGSFQLL-OH (peptide)
peptide: Biotin-GGSGGGGSGGGGSFQLL-OH
SMILES: CC(C)C[C@H](NC(=O)[C@H](CC(C)C)NC(=O)[C@H](CCC(N)=O)NC(=O)[C@H](Cc1ccccc1)NC(=O)[C@H](CO)NC(=O)CNC(=O)CNC(=O)CNC(=O)CNC(=O)[C@H](CO)NC(=O)CNC(=O)CNC(=O)CNC(=O)CNC(=O)[C@H](CO)NC(=O)CNC(=O)CNC(=O)CCCC[C@@H]1SC[C@@H]2NC(=O)N[C@@H]21)C(=O)O
On to B2, for which the KD in the test with Sortilin-6His [3] lay within 100 to 2000 nM. Besides, the “AUC of TR-FRET (HTRF ratio vs compound concentration) for ternary complex formation” value in the test with Sortilin-6His [4] was more than 5000 auc.

B3: Biotin-GGSGGGGSGGGFQLL-OH (peptide)
peptide: Biotin-GGSGGGGSGGGFQLL-OH
SMILES: CC(C)C[C@H](NC(=O)[C@H](CC(C)C)NC(=O)[C@H](CCC(N)=O)NC(=O)[C@H](Cc1ccccc1)NC(=O)CNC(=O)CNC(=O)CNC(=O)[C@H](CO)NC(=O)CNC(=O)CNC(=O)CNC(=O)CNC(=O)[C@H](CO)NC(=O)CNC(=O)CNC(=O)CCCC[C@@H]1SC[C@@H]2NC(=O)N[C@@H]21)C(=O)O
Consider B3, for which the dissociation constant (KD) with Sortilin-6His [3] was 100 to 2000 nM. Also, in the test with Sortilin-6His [4], the “AUC of TR-FRET (HTRF ratio vs compound concentration) for ternary complex formation” value was more than 5000 auc.

B4: Biotin-GGSGGGGSGGGRQLL-OH (peptide)
peptide: Biotin-GGSGGGGSGGGRQLL-OH
SMILES: CC(C)C[C@H](NC(=O)[C@H](CC(C)C)NC(=O)[C@H](CCC(N)=O)NC(=O)[C@H](CCCNC(=N)N)NC(=O)CNC(=O)CNC(=O)CNC(=O)[C@H](CO)NC(=O)CNC(=O)CNC(=O)CNC(=O)CNC(=O)[C@H](CO)NC(=O)CNC(=O)CNC(=O)CCCC[C@@H]1SC[C@@H]2NC(=O)N[C@@H]21)C(=O)O
B4: the KD in the test with Sortilin-6His [3] was in the range of 100 to 2000 nM. The “AUC of TR-FRET (HTRF ratio vs compound concentration) for ternary complex formation” value with Sortilin-6His [4] was less than 5000 auc.

B5: Biotin-GGSGGGGSGGGGSGGFQLL-OH (peptide)
peptide: Biotin-GGSGGGGSGGGGSGGFQLL-OH
SMILES: CC(C)C[C@H](NC(=O)[C@H](CC(C)C)NC(=O)[C@H](CCC(N)=O)NC(=O)[C@H](Cc1ccccc1)NC(=O)CNC(=O)CNC(=O)[C@H](CO)NC(=O)CNC(=O)CNC(=O)CNC(=O)CNC(=O)[C@H](CO)NC(=O)CNC(=O)CNC(=O)CNC(=O)CNC(=O)[C@H](CO)NC(=O)CNC(=O)CNC(=O)CCCC[C@@H]1SC[C@@H]2NC(=O)N[C@@H]21)C(=O)O
With B5, in the test with Sortilin-6His [3], the KD fell in the range of 100 to 2000 nM. Further, the “AUC of TR-FRET (HTRF ratio vs compound concentration) for ternary complex formation” value in the test with Sortilin-6His [4] is more than 5000 auc.

These data come from patent US20250345446A1 (Draupnir Bio ApS, priority 2022, published 2025).
